# Experimental data as given in paper PMC5712521, “Dendrogenin A drives LXR to trigger lethal autophagy in cancers” (Nature Communications, 2017).
# Key:
# B16F10 cells = test: Cell cycle analysis by flow cytometry; assay type: cell-based, mouse; details: 5 µM DDA, 48 h
# Procedure: Control and DDA-treated cells were fixed in 70% ethanol and then washed with PBS. Cells were incubated with 100 μg/ml RNase A for 30 min at 37 °C, permeabilized with 0.25% Tween-20, and stained with 50 μg/ml propidium iodide (PI) for 30 min at 37 °C. The DNA content of stained cells was analyzed by flow cytometry. The fraction of cells in sub-G1 phase was calculated using flowJo software (Ashland, Oregon). Data were obtained from 10^5 viable cells. […]
# HL60 cells = HL60 cells orthotopically engrafted (i.v.) into NSG mice; assay type: in vivo; details: for reduction of the number of HL60 cells in bone marrow and brain / reduction of HL60 cell viability in bone marrow and brain: 16 days; for reduction of HL60 cell viability in bone marrow and brain: Annexin-V
# Procedure: The engraftment of human primary AML cells was performed on NSG mice. Briefly, human primary AML cells, HL60 cells or normal CD34+ cells were resuspended in PBS, and 0.8 × 10^6 to 2 × 10^6 viable trypan blue-negative cells were injected intravenously into NSG mice that had been previously irradiated for 24 h with 2.25 Gy. […] The viability of AML cells was established by quantifying the percentage of hCD45+CD33+Annexin-V- cells.
# WM115 cells = test: Clonogenicity inhibition; assay type: cell-based; details: Homo sapiens, WM-115; WM115 (H); 72 h; read-out: Clono IC50
# Source text: (§1) Supplementary Fig. 1. a DDA inhibited m elanom a colony form ation. Melanom a cells were […]
# (§2) a 0.5% solution of crystal violet in water and analyzed by microscopy. Images are representative of 5 independent experiments. b Evaluation of DDA-induced cytotoxicity (cytotox) and clonogenicity (clono) inhibition in a subset of human (H) and mouse (M) m elanom a cell lines. T he BRaf status in m elanom a cells lines is shown. […]
# WM35 cells [1] = test: Clonogenicity inhibition; assay type: cell-based; details: Homo sapiens; WM35 (H); 72 h; read-out: Clono IC50
# Source text: as §1, §2
# SKMEL-2 cells [2] = test: Clonogenicity inhibition; assay type: cell-based; details: Homo sapiens, SK-MEL-2; SKMEL-2 (H); 72 h; read-out: Clono IC50
# Source text: as §1, §2
# WM-266-4 cells [3] = test: Clonogenicity inhibition; assay type: cell-based; details: Homo sapiens; WM-266-4 (H); 72 h; read-out: Clono IC50
# Source text: as §1, §2
# A375 cells = test: Clonogenicity inhibition; assay type: cell-based; details: Homo sapiens, A-375; A375 (H); 72 h; read-out: Clono IC50
# Source text: as §1, §2
# WM35 cells [4] = test: DDA-induced cytotoxicity; assay type: cell-based; details: Homo sapiens; WM35 (H), BRaf V600E; 72 h; read-out: Cytotox EC50
# Procedure: (§3) Melanoma cells were seeded into 6-well plates at 60,000 cells per well and AML cells at 250,000 cells/ml. The cells were then treated with control solvent vehicle (1/1000 ethanol in water) or DDA. Where indicated, treated cells were incubated in the presence or absence of each inhibitor for time shown. Cell death was determined by the trypan blue exclusion assay. Cells were scraped and resuspended in trypan blue solution (0.25% (w/v) in PBS) and counted in a Malassez cell under light microscopy. Cell viability was then quantified by counting viable (trypan blue-negative) and dead cells (trypan blue-positive). […]
# (§4) (cytotox) and clonogenicity (clono) inhibition in a subset of human (H) and mouse (M)
# (§5) m elanom a cell lines. T he BRaf status in m elanom a cells lines is shown. […]
# SKMEL-2 cells [5] = test: DDA-induced cytotoxicity; assay type: cell-based; details: Homo sapiens, SK-MEL-2; SKMEL-2 (H), BRaf WT; 72 h; read-out: Cytotox EC50
# Procedure: as §3, §4, §5
# WM-266-4 cells [6] = test: DDA-induced cytotoxicity; assay type: cell-based; details: Homo sapiens; WM-266-4 (H), BRaf WT; 72 h; read-out: Cytotox EC50
# Procedure: as §3, §4, §5
# B16F10 tumors = test: B16F10 melanoma tumors in mice; assay type: in vivo; details: mouse B16F10; i.p. 20 mg/kg/day
# Procedure: Exponentially growing cells were harvested, washed twice in PBS then resuspended in PBS. SKMEL-28, shSKMEL-28 clones (5 × 10^6 cells) and B16F10 (3 × 10^5) cells were injected subcutaneously (s.c.) into the flank of nude mice. HL60, KG1 and shKG1-clones (5 × 10^6) were inoculated s.c. into the flanks of NOD/SCID mice. When tumors were palpable, animals (n = 10–20 mice per group, as indicated) were randomized to receive either DDA (20 mg/kg) intraperitoneally (i.p.) or 40 mg/kg by oral gavage (p.o), once a day, or vehicle solvent for the indicated time. Animals were examined daily and body weights were measured twice a week. In all experiments, tumor volume was determined by direct measurement with a caliper and was calculated using the formula (width^2 × length)/2. At the end of experiments, mice were sacrificed and tumors were excised and divided for intra-tumoral DDA quantification, immunoblotting, or immunohistochemistry analyses.
# [7] = system: normal hematopoietic progenitor cells; test: Normal human CD34+ cells engrafted into NSG mice; assay type: in vivo; details: human BM CD34+ engrafted into NSG mice; 20 mg/kg/day i.p., 3 weeks
# Source text: AML patient and normal bone marrow samples were obtained from patients in the Hematology Department of Toulouse (France), after obtaining consent in accordance with the Declaration of Helsinki[67], and according to institutional guidelines. Samples were stored at the INSERM-1037 HIMIP collection (no. DC-2008-307-CPTP1 HIMIP). For some experiments, fresh leukemic blasts recovered at diagnosis were immediately treated with DDA. In other cases, frozen cells were thawed in IMDM medium with 20% FBS. Patient characteristics are shown in supplementary data 1. Normal bone marrow cells were subjected to Ficoll-Paque density gradient separation to isolate mononuclear cells, followed by CD34+ cell separation using high-gradient magnetic-activated cell sorting, according to the manufacturer’s manual. The in vivo assays were performed with cryopreserved cells.
# The engraftment of human primary AML cells was performed on NSG mice. […] Two and a half weeks after the injection of human cells, mice were treated with DDA (20 mg/kg/day by IP injection) or vehicle as control for 2, 3 weeks, after which the engraftment of human AML and normal hematopoietic cells was measured in the bone marrow, spleen and brain by quantifying the percentage of hCD45+CD33+ cells by flow cytometry. The viability of AML cells was established by quantifying the percentage of hCD45+CD33+Annexin-V- cells.
compound,measurement,setting,value
"CC(C)CCC[C@@H](C)[C@H]1CC[C@H]2[C@@H]3C[C@@H](NCCc4cnc[nH]4)[C@@]4(O)C[C@@H](O)CC[C@]4(C)[C@H]3CC[C@]12C [DDA, Dendrogenin A]",Cell cycle distribution: G0/G1,B16F10 cells,54.50%
same,Cell cycle distribution: G2/M,B16F10 cells,9.83%
same,Cell cycle distribution: S,B16F10 cells,9.68%
same,Cell cycle distribution: Sub G0/G1,B16F10 cells,25.03%
same,reduction of the number of HL60 cells in bone marrow and brain,HL60 cells; 20 mg/kg/day i.p.,60.5 ± 11%
same,reduction of HL60 cell viability in bone marrow and brain,HL60 cells; 20 mg/kg/day i.p.,21.9 ± 6%
same,reduction of the number of HL60 cells in bone marrow and brain,HL60 cells; 40 mg/kg/day p.o.,47 ± 9%
same,reduction of HL60 cell viability in bone marrow and brain,HL60 cells; 40 mg/kg/day p.o.,17.3 ± 5%
same,overall survival of HL60-engrafted mice,"HL60 cells; 40 mg/kg/day p.o., after disease establishment",significantly improved the survival
same,IC50,WM115 cells,1.5 ± 0.3 µM
same,IC50,WM35 cells [1],1.4 ± 0.2 µM
same,IC50,SKMEL-2 cells [2],1.4 ± 0.4 µM
same,IC50,WM-266-4 cells [3],1.2 ± 0.4 µM
same,IC50,A375 cells,1.5 ± 0.3 µM
same,EC50,WM35 cells [4],1.6 ± 0.1 µM
same,EC50,SKMEL-2 cells [5],2.3 ± 0.1 µM
same,EC50,WM-266-4 cells [6],2.7 ± 0.4 µM
same,tumor growth,B16F10 tumors,significantly reduced the growth
same,effect on normal hematopoietic progenitor cells,[7],no effect
